Common to all, as to assay: biochemical
The target in one test is T1, DPAP1 (Plasmodium falciparum, UniProt Q8IIJ9).
T1 sequence (Q8IIJ9 28-209): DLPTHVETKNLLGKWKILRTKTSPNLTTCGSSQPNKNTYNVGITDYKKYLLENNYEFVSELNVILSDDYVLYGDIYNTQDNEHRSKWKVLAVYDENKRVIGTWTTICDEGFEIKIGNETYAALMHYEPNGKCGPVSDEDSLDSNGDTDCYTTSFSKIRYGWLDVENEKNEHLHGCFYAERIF
T1 sequence (Q8IIJ9 370-599): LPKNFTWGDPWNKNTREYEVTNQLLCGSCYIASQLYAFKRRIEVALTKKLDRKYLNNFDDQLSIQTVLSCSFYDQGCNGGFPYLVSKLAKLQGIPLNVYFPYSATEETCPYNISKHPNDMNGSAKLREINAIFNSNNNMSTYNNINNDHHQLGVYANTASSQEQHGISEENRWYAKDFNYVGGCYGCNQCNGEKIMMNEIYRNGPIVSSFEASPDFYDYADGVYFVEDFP
T1 sequence (Q8IIJ9 600-700): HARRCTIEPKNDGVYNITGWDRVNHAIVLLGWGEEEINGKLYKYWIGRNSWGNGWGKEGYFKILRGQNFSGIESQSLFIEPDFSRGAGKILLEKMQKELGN
The arrangement: species or system P. falciparum parasite lysate; continuous fluorogenic assay, time-dependent inactivation of DPAP1 in diluted parasite lysate, Pro-Arg-AMC 20 uM. As to conditions: for kinact: read-out: DPAP1 / k inact ·10^3; for kinact/KI: read-out: DPAP1 / k inact/K i ·10^−3 (M ^−1·s^−1). The protocol:
(§1) Inhibition of DPAP1 was directly measured in parasite lysates diluted 100‐fold in assay buffer using the DPAP1‐selective substrate Pro‐Arg‐AMC 42; 0.2 nM of […] was used for these inhibition studies. Note that because DPAP1 inhibition was directly measured in parasite lysates, inhibitors might have been partially inactivated through the action of aminopeptidases present in the lysates during the course of the assay. Therefore, the potency of the inhibitors might have been underestimated. […] The data were analysed according to the irreversible inhibition model shown in Eqn. 1. First, the progress curves (fluorescent units vs. time) were fitted to Eqn. 5, where F is the measured fluorescence at time t, F 0 the initial fluorescence, V 0 the initial turnover rate, and k obs the observed […] rate constant of inhibition measured at each inhibitor concentration 64.

For a further test, the target named is DPAP3 (Plasmodium falciparum, UniProt Q8I1Y2). The arrangement: gene PF3D7_0404700; recombinant, baculovirus/SF9 insect cells, purified from culture supernatant by ion exchange, Ni-NTA and size exclusion; active-site titrated; continuous fluorogenic assay, time-dependent inactivation of 0.2 nM recombinant DPAP3, Met-nLeu(o-Bzl)-ACC 2.2 uM. As to conditions: for kinact: read-out: DPAP3 / k inact ·10^3; for kinact/KI: read-out: DPAP3 / k inact/K i ·10^−3 (M ^−1·s^−1). As to the method:
The data were analysed according to the irreversible inhibition model shown in Eqn. 1. First, the progress curves (fluorescent units vs. time) were fitted to Eqn. 5, where F is the measured fluorescence at time t, F 0 the initial fluorescence, V 0 the initial turnover rate, and k obs the observed […] rate constant of inhibition measured at each inhibitor concentration 64. […] The inhibition constants are reported in Fig. 3C and Table 2 (See also Fig. S2 for representative fits). Only one inhibitor, containing an amino‐1‐methyl‐benzyl (Amb) group in P2, was not able to inhibit DPAP3 in a time‐dependent manner under our assay conditions (Fig. 3D). This is probably due to the fact that this extended and rigid P2 AA (Fig. 3E) might prevent proper positioning of the [compound left out] group into the active site of DPAP3 to allow covalent modification of the catalytic cysteine. For this compound, a K i value for reversible inhibition was measured.

Another test concerns the target T2, CatC (bovine) (Bos taurus, UniProt Q3ZCJ8).
T2 construct: gene CTSC; native, purified to homogeneity from bovine spleen
Set-up: continuous fluorogenic assay, time-dependent inactivation of 0.2 nM CatC, Gly-Arg-AMC 15 uM. The following applies: for kinact: read-out: CatC / k inact ·10^3; for kinact/KI: read-out: CatC / k inact/K i ·10^−3 (M ^−1·s^−1). As to the method:
as §1

Sequence of DPAP3 (Q8I1Y2 entry or part of it): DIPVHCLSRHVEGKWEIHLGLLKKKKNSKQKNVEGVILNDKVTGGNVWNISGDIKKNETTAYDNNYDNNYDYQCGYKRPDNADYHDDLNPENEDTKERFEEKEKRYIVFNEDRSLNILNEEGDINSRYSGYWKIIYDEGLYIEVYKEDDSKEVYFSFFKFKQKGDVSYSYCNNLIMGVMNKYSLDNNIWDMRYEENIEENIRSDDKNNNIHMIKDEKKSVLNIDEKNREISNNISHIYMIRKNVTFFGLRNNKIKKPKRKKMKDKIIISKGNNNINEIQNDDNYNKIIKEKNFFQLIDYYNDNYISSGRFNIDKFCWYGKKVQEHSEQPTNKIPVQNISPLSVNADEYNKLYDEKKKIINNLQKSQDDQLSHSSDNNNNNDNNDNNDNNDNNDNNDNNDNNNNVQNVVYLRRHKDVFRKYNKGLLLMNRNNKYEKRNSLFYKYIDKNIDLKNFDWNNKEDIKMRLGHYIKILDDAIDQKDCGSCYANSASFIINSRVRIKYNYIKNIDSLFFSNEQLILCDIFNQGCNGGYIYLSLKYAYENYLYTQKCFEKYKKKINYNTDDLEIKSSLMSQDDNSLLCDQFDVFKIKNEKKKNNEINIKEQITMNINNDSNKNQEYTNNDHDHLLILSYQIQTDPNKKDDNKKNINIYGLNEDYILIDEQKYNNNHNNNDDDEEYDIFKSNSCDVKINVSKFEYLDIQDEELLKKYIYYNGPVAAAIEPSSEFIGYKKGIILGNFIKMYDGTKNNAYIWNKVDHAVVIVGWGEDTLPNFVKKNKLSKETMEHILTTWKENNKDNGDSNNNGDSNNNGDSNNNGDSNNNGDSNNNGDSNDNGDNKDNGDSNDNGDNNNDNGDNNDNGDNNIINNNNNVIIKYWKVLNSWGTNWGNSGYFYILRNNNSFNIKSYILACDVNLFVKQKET
T2 sequence (Q3ZCJ8 25-134): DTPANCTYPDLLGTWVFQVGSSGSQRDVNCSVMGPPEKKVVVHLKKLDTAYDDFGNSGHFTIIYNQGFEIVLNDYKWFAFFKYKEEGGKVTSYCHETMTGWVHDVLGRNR
T2 sequence (Q3ZCJ8 231-394): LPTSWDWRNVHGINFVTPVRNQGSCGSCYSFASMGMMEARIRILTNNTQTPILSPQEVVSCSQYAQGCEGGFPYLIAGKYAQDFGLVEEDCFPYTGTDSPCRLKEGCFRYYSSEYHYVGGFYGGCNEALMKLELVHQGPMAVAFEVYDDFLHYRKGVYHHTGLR
T2 sequence (Q3ZCJ8 395-463): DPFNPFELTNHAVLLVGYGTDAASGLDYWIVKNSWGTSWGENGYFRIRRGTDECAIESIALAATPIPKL

On to `N[C@@H](Cc1ccc2ccccc2c1)C(=O)N[C@H](/C=C/S(=O)(=O)c1ccccc1)CCc1ccccc1` [2Nal‐hPhe‐VS], for which the figures for the kinact at DPAP1, on DPAP3 and on CatC (bovine) were 0.0067 ± 0.0002 s⁻¹, 0.00259 ± 7e-05 s⁻¹ and 0.0037 ± 0.0002 s⁻¹, respectively. Moreover, the figures for the kinact/KI on DPAP1, at DPAP3 and on CatC (bovine) were 200 ± 5 M⁻¹ s⁻¹, 10200 ± 500 M⁻¹ s⁻¹ and 900 ± 100 M⁻¹ s⁻¹, respectively.

Turning to `N[C@@H](Cc1ccc2ccccc2c1)C(=O)N[C@H](/C=C/S(=O)(=O)c1ccccc1)CCCCOCc1ccccc1` [2Nal‐nLeu(o‐Bzl)‐VS], the results for the kinact at DPAP1, at DPAP3 and on CatC (bovine) were 0.005 ± 0.0017 s⁻¹, 0.006 ± 0.0007 s⁻¹ and 0.0024 ± 0.0006 s⁻¹, respectively. Also, the values for the kinact/KI at DPAP1, on DPAP3 and on CatC (bovine) were 190 ± 50 M⁻¹ s⁻¹, 2200 ± 300 M⁻¹ s⁻¹ and 1370 ± 90 M⁻¹ s⁻¹, respectively.

Regarding `N[C@H](Cc1c[nH]c2ccccc12)C(=O)N[C@H](/C=C/S(=O)(=O)c1ccccc1)CCc1ccccc1` [D‐Trp‐hPhe‐VS], the kinact is 0.0027 ± 0.0002 s⁻¹ on DPAP1, 0.0017 ± 0.0006 s⁻¹ on DPAP3 and 0.0026 ± 0.0001 s⁻¹ on CatC (bovine). Further, the values for the kinact/KI at DPAP1, at DPAP3 and on CatC (bovine) were 26 ± 1 M⁻¹ s⁻¹, 320 ± 80 M⁻¹ s⁻¹ and 620 ± 70 M⁻¹ s⁻¹, respectively.

With `N[C@H](C(=O)N[C@H](/C=C/S(=O)(=O)c1ccccc1)CCc1ccccc1)C1Cc2ccccc2C1` [Igl‐hPhe‐VS], the kinact was 0.0027 ± 0.0001 s⁻¹ at DPAP1, 0.0021 ± 0.0007 s⁻¹ on DPAP3 and 0.0058 ± 0.0003 s⁻¹ on CatC (bovine). Also, the kinact/KI on DPAP1 was 500 ± 30 M⁻¹ s⁻¹; at DPAP3 it was 205000 ± 22000 M⁻¹ s⁻¹; at CatC (bovine) it was 18000 ± 3000 M⁻¹ s⁻¹.

As for `N[C@H](C(=O)N[C@H](/C=C/S(=O)(=O)c1ccccc1)CCCCOCc1ccccc1)C1Cc2ccccc2C1` [Igl‐nLeu(o‐Bzl)‐VS], the kinact is 0.0041 ± 0.0002 s⁻¹ on DPAP1, 0.0056 ± 0.0004 s⁻¹ at DPAP3 and 0.00148 ± 6e-05 s⁻¹ on CatC (bovine). Moreover, the kinact/KI is 860 ± 50 M⁻¹ s⁻¹ on DPAP1, 35000 ± 4500 M⁻¹ s⁻¹ on DPAP3 and 135000 ± 14000 M⁻¹ s⁻¹ on CatC (bovine).

Consider `N[C@@H](Cc1c[nH]c2ccccc12)C(=O)N[C@H](/C=C/S(=O)(=O)c1ccccc1)CCc1ccccc1` [L‐Trp‐hPhe‐VS], for which the results for the kinact at DPAP1, at DPAP3 and at CatC (bovine) were 0.0017 ± 0.0001 s⁻¹, 0.0033 ± 0.0004 s⁻¹ and 0.0022 ± 9e-05 s⁻¹, respectively. The kinact/KI on DPAP1 stood at 3200 ± 300 M⁻¹ s⁻¹; on DPAP3, 52000 ± 7000 M⁻¹ s⁻¹; at CatC (bovine), 131000 ± 15000 M⁻¹ s⁻¹.

Consider `O=C(N[C@H](C=CS(=O)(=O)c1ccccc1)CCc1ccccc1)[C@@H]1CCCN1` [Pro‐hPhe‐VS], for which the kinact was determined as 0.0021 ± 0.0002 s⁻¹ at DPAP1, 0.0035 ± 0.0002 s⁻¹ at DPAP3 and 0.00145 ± 7e-05 s⁻¹ on CatC (bovine). For the same compound, the figures for the kinact/KI on DPAP1, at DPAP3 and at CatC (bovine) were 470000 ± 35000 M⁻¹ s⁻¹, 4100 ± 300 M⁻¹ s⁻¹ and 42000 ± 5000 M⁻¹ s⁻¹, respectively.

With `N[C@@H](Cc1ccc(O)c([N+](=O)[O-])c1)C(=O)N[C@H](C=CS(=O)(=O)c1ccccc1)CCc1ccccc1` [Tyr(NO2)‐hPhe‐VS], the kinact worked out at 0.0038 ± 0.001 s⁻¹ on DPAP1, 0.00226 ± 5e-05 s⁻¹ on DPAP3 and 0.0032 ± 0.0006 s⁻¹ on CatC (bovine). The results for the kinact/KI at DPAP1, at DPAP3 and on CatC (bovine) were 150 ± 50 M⁻¹ s⁻¹, 950000 ± 74000 M⁻¹ s⁻¹ and 54 ± 8 M⁻¹ s⁻¹, respectively.

For the compound `O=C(N[C@H](/C=C/S(=O)(=O)c1ccccc1)CCCCOCc1ccccc1)[C@@H]1CCCCN1` [hPro‐nLeu(o‐Bzl)‐VS], the kinact on DPAP1 amounted to 0.0029 ± 0.0003 s⁻¹; on DPAP3 it was 0.002 ± 0.0001 s⁻¹; at CatC (bovine), 0.00167 ± 3e-05 s⁻¹. Besides, the kinact/KI at DPAP1 amounted to 3.56e+06 ± 150000 M⁻¹ s⁻¹; at DPAP3, 53000 ± 6500 M⁻¹ s⁻¹; on CatC (bovine), 150000 ± 6000 M⁻¹ s⁻¹.

As for `CCC[C@H](N)C(=O)N[C@H](/C=C/S(=O)(=O)c1ccccc1)CCc1ccccc1` [nVal‐hPhe‐VS], the kinact at DPAP1 came out at 0.002 ± 0.0001 s⁻¹; at DPAP3 it was 0.0026 ± 0.0004 s⁻¹; on CatC (bovine), 0.0022 ± 0.0001 s⁻¹. In addition, the figures for the kinact/KI at DPAP1, on DPAP3 and on CatC (bovine) were 3.16e+06 ± 750000 M⁻¹ s⁻¹, 940000 ± 160000 M⁻¹ s⁻¹ and 5.83e+06 ± 970000 M⁻¹ s⁻¹, respectively.

The values are drawn from PMC6851853, “Characterization of P. falciparum dipeptidyl aminopeptidase 3 specificity identifies differences in amino acid preferences between peptide‐based substrates and covalent inhibitors” (The Febs Journal, 2019).
